What was measured:
[1] = test system: bentgrass (breed: penncross); assay: Example 7: bentgrass rubbed against mascarenegrass treated with rimsulfuron plus surfactant; details: in vivo
Experimental: (§1) Soil was put into a 1/300,000 ha pot, and mascarenegrass was cultivated. Further, soil was put into a 1/1,000,000 ha pot, and bentgrass (breed: penncross) was cultivated. A predetermined amount (rimsulfuron: 35.25 g a.i./ha) of water dispersible granules containing rimsulfuron as an active ingredient (tradename: Hurley DF, manufactured by MARUWA Biochemical Co., Ltd.) was diluted with water containing a predetermined amount of Maku-pika (tradename, the same as in Example 1) and applied by foliar treatment to the mascarenegrass by a small spraygun, so that the amount of the treating liquid corresponds to 2,000 L/ha. Upon expiration of 6 hours after the treatment, the bentgrass not treated with rimsulfuron was rubbed against the mascarenegrass treated therewith (the pot of bentgrass was permitted to slide and reciprocate once).
(§2) On 13th day after the treatment with rimsulfuron, the state of growth of the bentgrass was evaluated in the same manner as in Example 3, and the growth inhibition rate and the degree of discoloring are shown in Table 10. Further, as comparative areas, an area wherein Kusa-rino (tradename, the same as in Example 1) or Surfactant WK (tradename, manufactured by MARUWA Biochemical Co., Ltd.) was used, and an area wherein no surfactant was used, were provided.

[2] = test system: bentgrass (breed: penncross); assay: Example 1: bentgrass pot rubbed against mascarenegrass treated with flazasulfuron plus surfactant; details: in vivo
Experimental: Soil was put into a 1/300,000 ha pot, and mascarenegrass was cultivated. Further, soil was put into a 1/1,000,000 ha pot, and bentgrass (breed: penncross) was cultivated. A predetermined amount (flazasulfuron: 50 g a.i./ha) of water dispersible granules (tradename: SHIBAGEN DF, manufactured by Ishihara Sangyo Kaisha, Ltd.) containing flazasulfuron as an active ingredient, was diluted with water containing a predetermined amount of a silicone surfactant (tradename: Maku-pika, manufactured by Ishihara Sangyo Kaisha, Ltd.) and applied by foliar treatment to the mascarenegrass by a small spraygun so that the amount of the treating liquid corresponds to 2,000 L/ha. Immediately after the treatment or upon expiration of 6 hours after the treatment, the bentgrass not treated with flazasulfuron was rubbed against the mascarenegrass treated with flazasulfuron (the pot of bentgrass was permitted to slide and reciprocate once).
On 14th day after the treatment with flazasulfuron, the state of growth of the bentgrass was visually observed and investigated, and the growth inhibition rate and the degree of necrosis evaluated in accordance with the following standards are shown in Tables 1 and 2. […]

[3] = test system: bentgrass (breed: penncross); assay: Example 2: tester walked on flazasulfuron-treated Japanese lawngrass, then stepped on bentgrass; details: in vivo, 21 day
Experimental: Japanese lawngrass was cultivated on ground in 0.6 m^2 (0.4 m×1.5 m). Further, soil was put into a 1/300,000 ha pot, and bentgrass (breed: penncross) was cultivated. A predetermined amount (flazasulfuron: 50 g a.i./ha) of SHIBAGEN DF (tradename, the same as in Example 1) was diluted with water containing a predetermined amount of Maku-pika (tradename, the same as in Example 1) and applied by foliar treatment to the Japanese lawngrass by a small spraygun so that the amount of the treating liquid corresponds to 2,000 L/ha. Immediately after the treatment or upon expiration of 3 hours after the treatment, a tester walked (5 steps) on the Japanese lawngrass treated with flazasulfuron and then stepped on the bentgrass.
(§3) On 21st day after treatment with flazasulfuron, the state of growth of the bentgrass was evaluated in the same manner as in Example 1, and the growth inhibition rate is shown in Tables 3 and 4. Further, as comparative areas, an area wherein Kusa-rino (tradename, the same as in Example 1) was used, and an area wherein no surfactant was used, were provided.

[4] = test system: bentgrass (breed: Minakuru); assay: Example 4: field test, tester walked on flazasulfuron-treated mascarenegrass, then stepped on bentgrass; details: in vivo
Experimental: On ground, mascarenegrass in 50 m^2 (2 m×25 m) and bentgrass (breed: Minakuru) in 0.12 m^2 (0.35 m×0.35 m) were respectively cultivated. A predetermined amount (flazasulfuron: 100 g a.i./ha) of a wettable powder containing flazasulfuron as an active ingredient (tradename: SHIBAGEN WP, manufactured by Ishihara Sangyo Kaisha, Ltd.) was diluted with water containing a predetermined amount of a silicone surfactant (tradename: Silwet L-77, manufactured by Witco) and applied by foliar treatment to the mascarenegrass by a knapsack power sprayer so that the amount of the treating liquid corresponds to 2,000 L/ha. After the treating liquid dried, a tester walked (100 m) on the mascarenegrass treated with flazasulfuron, then walked (10 m) on mascarenegrass not treated with flazasulfuron and then stepped on five times on the bentgrass.
as §3, with “11th” for “21st”, “after the” for “after”, “3,” for “1,”, “and the degree of discoloring are” for “is”, “Table 7.” for “Tables 3 and 4.”

[5] = test system: bentgrass (breed: penncross); assay: Example 10: bentgrass rubbed against mascarenegrass treated with flazasulfuron plus surfactant (Breakthru); details: in vivo
Experimental: as §1, with “(flazasulfuron: 50” for “(rimsulfuron: 35.25”, “SHIBAGEN DF (tradename, the same” for “water dispersible granules containing rimsulfuron”, “in Example 1)” for “an active ingredient (tradename: Hurley DF, manufactured by MARUWA Biochemical Co., Ltd.)”, “a silicone surfactant (tradename: Breakthru, manufactured by Sankei Chemical Co., Ltd.)” for “Maku-pika (tradename, the same as in Example 1)”, “flazasulfuron,” for “rimsulfuron”
as §3, with “after the” for “after”, “3,” for “1,”, “and the degree of discoloring are” for “is”, “Table 13.” for “Tables 3 and 4.”

[6] = test system: bentgrass (breed: penncross); assay: Example 6: bentgrass rubbed against mascarenegrass treated with asulam plus surfactant; details: in vivo
Experimental: Soil was put into a 1/300,000 ha pot, and mascarenegrass were cultivated. Further, soil was put into a 1/1,000,000 ha pot, and bentgrass (breed: penncross) was cultivated. A predetermined amount (asulam: 4625 g a.i./ha) of a treating liquid containing asulam as an active component (tradename: Arsilan liquid preparation, manufactured by Ishihara Sangyo Kaisha, Ltd.) was diluted with water containing a predetermined amount of Maku-pika (tradename, the same as in Example 1), and applied by foliar treatment to the mascarenegrass by a small spraygun so that the amount of the treating liquid corresponds to 2,000 L/ha. Upon expiration of 6 hours after the treatment, the bentgrass not treated with asulam was rubbed against the mascarenegrass treated therewith (the pot of bentgrass was permitted to slide and reciprocate once).
as §2, with “12th” for “13th”, “asulam,” for “rimsulfuron,”, “9.” for “10.”, “1)” for “1) or Surfactant WK (tradename, manufactured by MARUWA Biochemical Co., Ltd.)”

[7] = test system: bentgrass (breed: penncross); assay: Example 5: bentgrass rubbed against mascarenegrass treated with trifloxysulfuron sodium salt plus surfactant; format: in vivo; details: trifloxysulfuron sodium salt 45 g a.i./ha, spreading agent not added, rubbed 6 hours after treatment, 12th day
Experimental: as §1, with “amount (trifloxysulfuron sodium salt: 45” for “amount (rimsulfuron: 35.25”, “containing trifloxysulfuron sodium salt” for “containing rimsulfuron”, “(tradename: Monument water dispersible granules,” for “(tradename: Hurley DF,”, “by Syngenta Japan K.K.)” for “by MARUWA Biochemical Co., Ltd.)”, “with trifloxysulfuron sodium salt,” for “with rimsulfuron”
as §2, with “12th” for “13th”, “trifloxysulfuron sodium salt,” for “rimsulfuron,”, “8.” for “10.”, “1)” for “1) or Surfactant WK (tradename, manufactured by MARUWA Biochemical Co., Ltd.)”

## CCS(=O)(=O)c1cccnc1S(=O)(=O)NC(=O)Nc1nc(OC)cc(OC)n1 [rimsulfuron]
[1]
  Bentgrass Discoloring: 1.0
[1]; penncross, bentgrass, 13 day
  Bentgrass Growth inhibition rate: 35%

## COc1cc(OC)nc(NC(=O)NS(=O)(=O)c2ncccc2C(F)(F)F)n1 [flazasulfuron]
[2]
  Bentgrass Necrosis: 0.8
[2]; penncross, bentgrass, 14 day
  Bentgrass Growth inhibition rate (%): 48%
[3]
  Bentgrass Growth inhibition rate (%): 30%
[4]; Minakuru, bentgrass, 11 day
  Bentgrass Growth inhibition rate (%): 28%
[4]
  Bentgrass Discoloring: 1.0
[5]
  Bentgrass Discoloring: 0.5
[5]; penncross, bentgrass, 21 day
  Bentgrass Growth inhibition rate: 57%

## COC(=O)NS(=O)(=O)c1ccc(N)cc1 [asulam]
[6]
  Bentgrass Discoloring: 2.5
[6]; penncross, bentgrass, 12 day
  Bentgrass Growth inhibition rate: 45%

## COc1cc(OC)nc(NC(=O)[N-]S(=O)(=O)c2ncccc2OCC(F)(F)F)n1.[Na+] [trifloxysulfuron sodium salt]
[7]
  Bentgrass Growth inhibition rate: 60%
[7]; degree 0-5.0
  Bentgrass Discoloring: 1.5

— patent US9107404B2, “Method for reducing undesirable effects on turfgrass” (Ishihara Sangyo Kaisha, Ltd., priority 2010, dated 2015)
